Patent US7598382B2, “Aryl substituted imidazoquinolines” (Coley Pharmaceutical Group, Inc., priority 2002, dated 2009)

Experiments:
[1] = tested on: tumor necrosis factor-α (TNF-α) production in mouse macrophage cell line Raw 264.7; assay: TNF-α inhibition in mouse cells, single concentration assay (LPS-stimulated Raw 264.7); format: cell-based; conditions: Raw 264.7 cells stimulated by LPS (EC70), compound 5 μM (single concentration) or 0.03-10 μM (dose response), 18 to 24 hours, ELISA
Protocol: The compounds of Formulas I and II are useful as immune response modifiers (IRMs) due to their ability to modulate cytokine biosynthesis (e.g., induce or inhibit the biosynthesis or production of one or more cytokines) and otherwise modulate the immune response when administered to animals. Compounds can be tested per the test procedures described in the Examples Section. Compounds can be tested for induction of cytokine biosynthesis by incubating human PBMC in a culture with the compound(s) at a concentration range of 30 to 0.014 μM and analyzing for interferon (α) or tumor necrosis factor (α) in the culture supernatant. Compounds can be tested for inhibition of cytokine biosynthesis by incubating mouse macrophage cell line Raw 264.7 in a culture with the compound(s) at a single concentration of, for example, 5 μM and analyzing for tumor necrosis factor (α) in the culture supernatant. Compounds can be further tested for dose response by running the test at several compound concentrations, for example, 0.03, 0.1, 0.3, 1, 3, 5, and 10 μM. The ability to modulate cytokine biosynthesis makes the compounds useful in the treatment of a variety of conditions such as viral diseases, neoplastic diseases, and autoimmune diseases that are responsive to such changes in the immune response.
The mouse macrophage cell line Raw 264.7 is used to assess the ability of compounds to inhibit tumor necrosis factor-α (TNF-α) production upon stimulation by lipopolysaccharide (LPS).
Raw cells (ATCC) are harvested by gentle scraping and then counted. The cell suspension is brought to 3×10^5 cells/mL in RPMI with 10% fetal bovine serum (FBS). […]
The compounds are solubilized in dimethyl sulfoxide (DMSO). […] LPS (Lipopolysaccaride from Salmonella typhimurium, Sigma-Aldrich) is diluted with colorless RPMI to the EC70 concentration as measured by a dose response assay. […]
Following the incubation the supernatant is removed with a pipet. TNF-α concentration is determined by ELISA using a mouse TNF-α kit (from Biosource International, Camarillo, Calif.). […]

## CC(C)Cn1cnc2c(N)nc3ccc(-c4ccccc4)cc3c21 [Example 15, 1-Isobutyl-8-phenyl-1H-imidazo[4,5-c]quinolin-4-amine]
[1]
  modulate cytokine biosynthesis by inhibiting production of tumor necrosis factor α (TNF-α): inhibiting production of tumor necrosis factor α (TNF-α)
other
  melting point: 203 to 204 °C

## CC(C)Cn1cnc2c(N)nc3ccc(-n4cccc4)cc3c21 [Example 481, 1-(2-Methylpropyl)-8-(1-pyrrolyl)-1H-imidazo[4,5-c]quinolin-4-amine]
[1]
  modulate cytokine biosynthesis by inhibiting production of tumor necrosis factor α (TNF-α): inhibiting production of tumor necrosis factor α (TNF-α)
other
  melting point: 227.5 to 231.5 °C

## CC(C)Cn1cnc2c(N)nc3ccc(-c4cccnc4)cc3c21 [Example 14, 1-Isobutyl-8-(pyridin-3-yl)-1H-imidazo[4,5-c]quinolin-4-amine]
[1]
  modulate cytokine biosynthesis by inhibiting production of tumor necrosis factor α (TNF-α): inhibiting production of tumor necrosis factor α (TNF-α)
other
  melting point: 244 to 246 °C
